# Experimental data taken from paper PMC7659962, “Essential Oils from Monarda fistulosa: Chemical Composition and Activation of Transient Receptor Potential A1 (TRPA1) Channels” (Molecules, 2020).
# Target: T1, rTRPA1 (Rattus norvegicus, UniProt Q6RI86)
# T1 construct: gene Trpa1
# Assay: Fura-2 calcium imaging in stably transfected HEK […] cells
# Type: cell-based
# Conditions: 100 µM; agonist; HBSS pH […]; […] ratio change from baseline; blocked by HC-030031; nontransfected HEK cells as control
# T1 sequence (Q6RI86 whole entry): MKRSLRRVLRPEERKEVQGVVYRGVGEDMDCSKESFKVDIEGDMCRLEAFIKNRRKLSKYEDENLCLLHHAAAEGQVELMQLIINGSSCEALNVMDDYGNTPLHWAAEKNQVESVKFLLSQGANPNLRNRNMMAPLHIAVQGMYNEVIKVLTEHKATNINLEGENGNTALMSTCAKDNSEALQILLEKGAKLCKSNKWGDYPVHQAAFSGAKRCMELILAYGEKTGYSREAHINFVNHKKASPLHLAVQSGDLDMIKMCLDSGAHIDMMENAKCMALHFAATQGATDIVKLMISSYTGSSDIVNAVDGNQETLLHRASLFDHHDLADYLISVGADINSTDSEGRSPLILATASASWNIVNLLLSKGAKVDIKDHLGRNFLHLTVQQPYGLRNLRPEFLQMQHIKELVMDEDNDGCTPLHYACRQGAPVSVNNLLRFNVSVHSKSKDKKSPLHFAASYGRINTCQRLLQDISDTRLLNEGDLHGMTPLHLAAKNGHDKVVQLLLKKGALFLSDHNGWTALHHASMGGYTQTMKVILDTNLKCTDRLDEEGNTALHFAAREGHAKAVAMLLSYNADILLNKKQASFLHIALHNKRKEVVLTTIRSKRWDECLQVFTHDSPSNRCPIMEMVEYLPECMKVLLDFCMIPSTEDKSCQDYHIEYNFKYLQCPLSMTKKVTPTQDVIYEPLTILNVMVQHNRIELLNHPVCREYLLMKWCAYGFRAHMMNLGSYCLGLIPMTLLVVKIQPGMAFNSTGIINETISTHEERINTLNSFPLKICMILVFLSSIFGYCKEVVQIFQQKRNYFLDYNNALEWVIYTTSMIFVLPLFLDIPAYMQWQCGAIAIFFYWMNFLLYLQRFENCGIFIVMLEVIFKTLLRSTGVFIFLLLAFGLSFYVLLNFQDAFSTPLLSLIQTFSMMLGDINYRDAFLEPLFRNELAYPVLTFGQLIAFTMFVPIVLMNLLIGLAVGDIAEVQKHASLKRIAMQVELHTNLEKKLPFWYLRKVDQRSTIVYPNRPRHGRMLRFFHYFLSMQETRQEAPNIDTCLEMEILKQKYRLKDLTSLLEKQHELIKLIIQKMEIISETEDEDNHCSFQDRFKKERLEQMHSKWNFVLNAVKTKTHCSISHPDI
row,SMILES,HEK Cells / rTRPA1 / [Ca^2+]i Change
1,Cc1ccc(C(C)C)cc1O [Carvacrol],0.340 ± 0.012
2,C=CC(=C)CCC=C(C)C [β-Myrcene],0.111 ± 0.003
3,Cc1ccc(C(C)C)c(O)c1 [Thymol],0.849 ± 0.013
